The results in this text go back to patent US20250288589A1, “PYRIDOPYRIMIDINES AND METHODS OF THEIR USE” (Kineta, Inc., priority 2021, published 2025).

Where only a bound is given, the exact number is not on record here.

The first assay deals with T1, PIKfyve (Homo sapiens, UniProt Q9Y2I7).
T1 construct: PIKFYVE-NanoLuc® Fusion Vector (Promega) containing a full-length PIKfyve; host or cells: HEK293
T1 sequence (Q9Y2I7 whole entry, the tested form may be a part): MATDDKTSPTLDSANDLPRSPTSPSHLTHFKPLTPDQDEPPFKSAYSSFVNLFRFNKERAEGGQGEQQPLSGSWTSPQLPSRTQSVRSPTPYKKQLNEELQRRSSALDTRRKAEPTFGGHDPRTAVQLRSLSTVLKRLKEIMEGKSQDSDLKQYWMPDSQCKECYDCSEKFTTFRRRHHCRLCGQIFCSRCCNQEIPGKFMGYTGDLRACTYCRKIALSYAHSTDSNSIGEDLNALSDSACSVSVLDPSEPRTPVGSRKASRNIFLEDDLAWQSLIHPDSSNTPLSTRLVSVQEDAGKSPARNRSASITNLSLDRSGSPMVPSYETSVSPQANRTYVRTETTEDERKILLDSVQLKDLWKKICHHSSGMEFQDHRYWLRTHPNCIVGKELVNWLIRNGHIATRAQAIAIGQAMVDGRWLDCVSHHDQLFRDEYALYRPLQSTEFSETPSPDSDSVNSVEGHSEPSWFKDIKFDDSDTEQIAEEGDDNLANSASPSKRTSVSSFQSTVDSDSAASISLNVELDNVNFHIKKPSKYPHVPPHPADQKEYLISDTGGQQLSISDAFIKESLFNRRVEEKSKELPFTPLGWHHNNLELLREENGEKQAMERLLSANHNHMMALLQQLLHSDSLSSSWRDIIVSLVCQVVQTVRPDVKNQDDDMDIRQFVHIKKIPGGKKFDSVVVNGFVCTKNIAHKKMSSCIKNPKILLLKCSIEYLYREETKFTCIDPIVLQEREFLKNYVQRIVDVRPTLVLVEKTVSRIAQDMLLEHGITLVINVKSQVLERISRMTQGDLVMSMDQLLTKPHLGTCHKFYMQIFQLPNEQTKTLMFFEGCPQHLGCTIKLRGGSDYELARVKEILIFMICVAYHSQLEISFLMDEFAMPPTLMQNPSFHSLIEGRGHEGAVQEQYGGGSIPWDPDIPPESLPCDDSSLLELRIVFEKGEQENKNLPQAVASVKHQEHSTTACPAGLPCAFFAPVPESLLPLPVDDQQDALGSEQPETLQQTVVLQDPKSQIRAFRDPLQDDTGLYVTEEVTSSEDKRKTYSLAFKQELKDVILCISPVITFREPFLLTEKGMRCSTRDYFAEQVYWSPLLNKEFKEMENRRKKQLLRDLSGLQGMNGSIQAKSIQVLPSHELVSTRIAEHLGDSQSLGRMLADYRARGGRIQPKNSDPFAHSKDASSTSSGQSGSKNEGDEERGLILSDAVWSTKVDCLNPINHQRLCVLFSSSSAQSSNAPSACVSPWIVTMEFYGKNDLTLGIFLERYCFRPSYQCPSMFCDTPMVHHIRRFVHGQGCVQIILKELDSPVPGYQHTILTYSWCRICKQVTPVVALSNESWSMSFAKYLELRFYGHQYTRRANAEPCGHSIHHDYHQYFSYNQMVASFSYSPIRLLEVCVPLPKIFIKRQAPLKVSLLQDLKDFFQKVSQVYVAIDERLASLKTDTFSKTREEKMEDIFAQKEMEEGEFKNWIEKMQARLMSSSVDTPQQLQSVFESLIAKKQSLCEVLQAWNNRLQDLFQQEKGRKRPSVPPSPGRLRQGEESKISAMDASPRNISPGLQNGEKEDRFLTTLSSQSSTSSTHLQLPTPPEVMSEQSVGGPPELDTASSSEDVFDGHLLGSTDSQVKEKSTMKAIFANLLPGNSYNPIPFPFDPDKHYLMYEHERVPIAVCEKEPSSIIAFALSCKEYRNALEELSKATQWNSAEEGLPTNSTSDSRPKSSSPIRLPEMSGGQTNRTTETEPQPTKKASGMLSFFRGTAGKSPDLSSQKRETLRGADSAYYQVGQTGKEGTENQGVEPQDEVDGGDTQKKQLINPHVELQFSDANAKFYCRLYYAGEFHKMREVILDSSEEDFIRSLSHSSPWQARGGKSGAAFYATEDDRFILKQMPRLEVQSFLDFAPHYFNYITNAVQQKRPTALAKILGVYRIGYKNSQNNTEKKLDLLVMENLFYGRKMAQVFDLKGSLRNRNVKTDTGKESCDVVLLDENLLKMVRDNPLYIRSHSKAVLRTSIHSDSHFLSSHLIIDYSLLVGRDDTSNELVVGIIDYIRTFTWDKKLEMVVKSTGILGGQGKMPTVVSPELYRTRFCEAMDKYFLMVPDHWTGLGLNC
The assay is described as follows: NanoBRET TE Intracellular Kinase Assay, K-8 (Promega) cell-based assay. The conditions noted are these: HEK293 cells transfected with PIKFYVE-NanoLuc, compounds 2 hours; read-out: hPIKfyve BRET IC50. The procedure:
NanoBRET™ TE Intracellular Kinase Assay, K-8 (Promega) Cell-Based Assay. Intracellular inhibition of PIKfyve was assayed using Promega's NanoBRET™ TE Intracellular Kinase Assay, K-8 according to manufacturer's instructions. A dilution series of test compounds was added for 2 hours to HEK293 cells transfected for a minimum of 20 hours with PIKFYVE-NanoLuc® Fusion Vector (Promega) containing a full-length PIKfyve according to manufacturer's specifications in a 96-well plate. Kinase activity was detected by addition of a NanoBRET™ tracer reagent, which was a proprietary PIKfyve inhibitor appended to a fluorescent probe (BRET, bioluminescence resonance energy transfer). Test compounds were tested at concentrations of 10, 3, 1, 0.3, 0.1, 0.03, 0.01, 0.003 μM. BRET signals were measured by a GloMax® Discover Multimode Microplate Reader (Promega) using 0.3 sec/well integration time, 450BP donor filter and 600LP acceptor filters. Active test compounds that bound PIKfyve and displaced the tracer reduced BRET signal. IC50 values were then calculated by fitting the data to the normalized BRET ratio.
As a reminder, the IC50 is the concentration that inhibits the measured activity by half. Turning to `c1ccc(-c2ccn(-c3nc(N4CCOCC4)c4ncccc4n3)n2)nc1` [Compound 12, 4-(2-(3-(pyridin-2-yl)-1H-pyrazol-1-yl)pyrido[3,2-d]pyrimidin-4-yl)morpholine], the IC50 was 1 to 10 µM.
Turning to `Oc1cc(-c2ccccc2)nn1-c1nc(N2CCOCC2)c2ncccc2n1` [Compound 71, 1-(4-morpholinopyrido[3,2-d]pyrimidin-2-yl)-3-phenyl-1H-pyrazol-5-ol], the IC50 was above 10 µM.

In the next assay the target is T2, full-length human PIKFYVE (Homo sapiens, UniProt Q9Y2I7, L932S/Q1183K/Q995L/S1033A/S696N/T998S).
T2 construct: A full-length human PIKFYVE [1-2098(end) amino acids and S696N, L932S, Q995L, T998S, S1033A and Q1183K; purchased Carna Biosciences; host or cells: baculovirus expression system
T2 sequence (Q9Y2I7 whole entry S696N/L932S/Q995L/T998S/S1033A/Q1183K): as the sequence (Q9Y2I7 whole entry, the tested form may be a part) above, with S696N, L932S, Q995L, T998S, S1033A, Q1183K counted along it
The assay is described as follows: PIKfyve biochemical assay (ADP-Glo Kinase assay, Carna Biosciences). Particulars: GST-PIKFYVE, 10 μM to 3 nM in duplicate, read-out: hPIKfyve IC50. Background: ADP-Glo turns the ADP formed in a reaction into a luminescent signal.
On to `c1ccc(-c2ccn(-c3nc(N4CCOCC4)c4ncccc4n3)n2)nc1` [Compound 12, 4-(2-(3-(pyridin-2-yl)-1H-pyrazol-1-yl)pyrido[3,2-d]pyrimidin-4-yl)morpholine], for which the IC50 lay within 0.1 to 1 µM.
Still for that read-out and setting: then `Oc1cnc(-c2ccccc2)nc1-c1nc(N2CCOCC2)c2ncccc2n1` [Compound 94, 4-(4-morpholinopyrido[3,2-d]pyrimidin-2-yl)-2-phenylpyrimidin-5-ol], with 0.01 to 0.1 µM; and `O=C1N(c2nc(N3CCOCC3)c3ncccc3n2)CCN1C1CCCC1` [Compound 78, 1-cyclopentyl-3-(4-morpholinopyrido[3,2-d]pyrimidin-2-yl)imidazolidin-2-one], with above 10 µM; and `COc1cccc(-c2cnn(-c3nc(N4CCOCC4)c4ncc(CO)cc4n3)c2)c1` [Compound 45, (2-(4-(3-methoxyphenyl)-1H-pyrazol-1-yl)-4-morpholinopyrido[3,2-d]pyrimidin-7-yl)methanol], with below 0.01 µM.
Regarding `c1ccc(-c2cncc(-c3nc(N4CCOCC4)c4ncccc4n3)n2)cc1` [Compound 97, 4-(2-(6-phenylpyrazin-2-yl)pyrido[3,2-d]pyrimidin-4-yl)morpholine], the IC50 fell in the range of 0.1 to 1 µM.
Regarding `O=c1[nH]c(-c2ccccc2)nn1-c1nc(N2CCOCC2)c2ncccc2n1` [Compound 82, 2-(4-morpholinopyrido[3,2-d]pyrimidin-2-yl)-5-phenyl-4H-1,2,4-triazol-3-one], the IC50 was 0.1 to 1 µM.
On to `COc1cnc(-c2cccc(C)c2)nc1-c1nc(N2CCOCC2)c2ncccc2n1` [Compound 102, 4-(2-(5-methoxy-2-m-tolylpyrimidin-4-yl)pyrido[3,2-d]pyrimidin-4-yl)morpholine], for which the IC50 lay in the range of 0.1 to 1 µM.
Consider `COc1ccc(Cc2ccn(-c3nc(N4CCOCC4)c4ncc(C5=CCOCC5)cc4n3)n2)cc1` [Compound 35, 4-(7-(3,6-dihydro-2H-pyran-4-yl)-2-(3-(4-methoxybenzyl)-1H-pyrazol-1-yl)pyrido[3,2-d]pyrimidin-4-yl)morpholine], for which the IC50 lay in the range of 0.1 to 1 µM.
As for `c1cnc2c(N3CCOCC3)nc(-c3n[nH]c4ccccc34)nc2c1` [Compound 69, 4-[2-(1H-indazol-3-yl)pyrido[3,2-d]pyrimidin-4-yl]morpholine], the IC50 lay in the range of 1 to 10 µM.
Take `Fc1cccc(-c2ccn(-c3nc(N4CCOCC4)c4ncc(C5CCOCC5)cc4n3)n2)c1` [Compound 22, 4-[2-[3-(3-fluorophenyl)pyrazol-1-yl]-7-tetrahydropyran-4-yl-pyrido[3,2-d]pyrimidin-4-yl]morpholine]: the IC50 was 0.01 to 0.1 µM.
Turning to `c1ccc(-c2nccc(-c3nc(N4CCOCC4)c4ncc(-c5cc[nH]n5)cc4n3)n2)cc1` [Compound 105, 4-(2-(2-phenylpyrimidin-4-yl)-7-(1H-pyrazol-3-yl)pyrido[3,2-d]pyrimidin-4-yl)morpholine], the IC50 lay within 0.01 to 0.1 µM.
As for `c1ccc(-c2cnn(-c3nc(N4CCOCC4)c4ncc(N5CCOCC5)cc4n3)c2)cc1` [Compound 40, 4,4′-(2-(4-phenyl-1H-pyrazol-1-yl)pyrido[3,2-d]pyrimidine-4,7-diyl)dimorpholine], the IC50 was below 0.01 µM.
Regarding `c1ccc2c(c1)cnn2-c1nc(N2CCOCC2)c2ncccc2n1` [Compound 109, 4-(2-indazol-1-ylpyrido[3,2-d]pyrimidin-4-yl)morpholine], the IC50 lay in the range of 0.1 to 1 µM.
Turning to `c1ccc(-c2nccc(-c3nc(N4CCOCC4)c4ncc(N5CCOCC5)cc4n3)n2)cc1` [Compound 95, 4,4′-(2-(2-phenylpyrimidin-4-yl)pyrido[3,2-d]pyrimidine-4,7-diyl)dimorpholine], the IC50 lay within 0.01 to 0.1 µM.
As to `COc1cccc(-c2nccc(-c3nc(N4CCOCC4)c4ncccc4n3)n2)c1` [Compound 100, 4-(2-(2-(3-methoxyphenyl)pyrimidin-4-yl)pyrido[3,2-d]pyrimidin-4-yl)morpholine], the IC50 lay in the range of 0.1 to 1 µM.
Consider `c1coc(-c2nccc(-c3nc(N4CCOCC4)c4ncccc4n3)n2)c1` [Compound 99, 4-(2-(2-(furan-2-yl)pyrimidin-4-yl)pyrido[3,2-d]pyrimidin-4-yl)morpholine], for which the IC50 is 1 to 10 µM.

The subject of a further assay is PIKFYVE TDP-43 yeast strain. The assay is described as follows: Propidium iodide viability assay in PIKFYVE TDP-43 yeast strain. It counts as cell-based. The conditions noted are these: 0.23 μM (FIG. 6). The source says:
Generation of TDP-43 yeast model expressing human PIKfyve. Human PIKFYVE (“entry clone”) was cloned into pAG416GPDccdB (“destination vector”) according to standard Gateway cloning protocols (Invitrogen, Life Technologies). The resulting pAG416GPD-PIKFYVE plasmids were amplified in E. coli and plasmid identity confirmed by restriction digest and Sanger sequencing. Lithium acetate/polyethylene glycol-based transformation was used to introduce the above PIKFYVE plasmid into a BY4741 yeast strain auxotrophic for the ura3 gene and deleted for two transcription factors that regulate the xenobiotic efflux pumps, a major efflux pump, and FAB1, the yeast ortholog of PIKFYVE (MATa, snq2::KILeu2; pdr3::Klura3;pdr1::NATMX; fab1::G418^R, his3;leu2;ura3;met15;LYS2+) (FIG. 2).
Transformed yeast were plated on solid agar plates with complete synthetic media lacking uracil (CSM-ura) and containing 2% glucose. Individual colonies harboring the control or PIKFYVE TDP-43 plasmids were recovered. A plasmid containing wild-type TDP-43 under the transcriptional control of the GAL1 promoter and containing the hygromycin-resistance gene as a selectable marker was transformed into the fab1::G418^R pAG416GPD-PIKFYVE yeast strain (FIG. 1). Transformed yeast were plated on CSM-ura containing 2% glucose and […] after overnight recovery in media lacking antibiotic. Multiple independent isolates were further evaluated for cytotoxicity and TDP-43 expression levels.
Viability Assay. A control yeast strain with the wild-type yeast FAB1 gene and TDP-43 (“FAB1 TDP-43”, carries empty pAG416 plasmid), and the “PIKFYVE TDP-43” yeast strain, were assessed for toxicity using a propidium iodide viability assay. Both yeast strains were transferred from solid CSM-ura/2% glucose agar plates into 3 mL of liquid CSM-ura/2% glucose media for 6-8 hours at 30° C. with aeration. Yeast cultures were then diluted to an optical density at 600 nm wavelength (OD600) of 0.005 in 3 mL of CSM-ura/2% raffinose and grown overnight at 30° C. with aeration to an OD600 of 0.3-0.8. Log-phase overnight cultures were diluted to OD600 of 0.005 in CSM-ura containing either 2% raffinose or galactose and 150 μL dispensed into each well of a flat bottom 96-well plates. Compounds formulated in 100% dimethyl sulfoxide (DMSO) were serially diluted in DMSO and 1.5 μL diluted compound transferred to the 96-well plates using a multichannel pipet. Wells containing DMSO alone were also evaluated as controls for compound effects. Tested concentrations ranged from 15 μM to 0.11 μM. Cultures were immediately mixed to ensure compound distribution and covered plates incubated at 30° C. for 24 hours in a stationary, humified incubator.
Upon the completion of incubation, cultures were assayed for viability using propidium iodide (PI) to stain for dead/dying cells. A working solution of PI was made where, for each plate, 1 μL of 10 mM PI was added to 10 mL of CSM-ura (raffinose or galactose). The final PI solution (50 μL/well) was dispensed into each well of a new round bottom 96-well plate. The overnight 96-well assay plate was then mixed with a multichannel pipet and 50 μL transferred to the PI-containing plate. This plate was then incubated for 30 minutes at 30° C. in the dark. A benchtop flow cytometer (Miltenyi MACSquant) was then used to assess red fluorescence (B2 channel), forward scatter, and side scatter (with following settings: gentle mix, high flow rate, fast measurement, 10,000 events). Intensity histograms were then gated for “PI-positive” or “PI-negative” using the raffinose and galactose cultures treated with DMSO as controls. The DMSO controls for raffinose or galactose-containing cultures were used to determine the window of increased cell death and this difference set to 100. All compounds were similarly gated and then compared to this maximal window to establish the percent reduction in PI-positive cells.
As to `Cc1cccc(/C=N/Nc2cc(N3CCOCC3)n3nc(-c4ccncc4)cc3n2)c1` [APY0201, reference compound], the “propidium iodide-positive dead cells in PIKFYVE TDP-43 model” value was “reduced the population of propidium iodide-positive dead cells”.

The assay is the same for the next values; noted with them: PIKFYVE TDP-43 model.
Take `Cc1cccc(/C=N/Nc2cc(N3CCOCC3)n3nc(-c4ccncc4)cc3n2)c1` [APY0201, reference compound]: the “concentrations that afforded increased viability” value is recorded as 0.5 mM to less than 100 nM.

Staying with this assay, now noted: Saccharomyces cerevisiae; reduction in PI-positive cells, 24 hours, 15 μM to 0.11 μM; plotted in FIG. 7.
Molecule `Oc1cc(-c2ccccc2)nn1-c1cc(N2CCOCC2)n2nc(-c3ccncc3)nc2n1` came in with an IC50 of 0.693 µM.
Molecule `Oc1cc(C2CCOCC2)nn1-c1cc(N2CCOCC2)n2nc(-c3ccncc3)cc2n1` had an IC50 of 9.11 µM.
The molecule `Cc1cccc(/C=N/Nc2nc(N3CCOCC3)c3nc(-c4ccncc4)n(C)c3n2)c1` returned a 50% inhibitory concentration (IC50) of 4.72 µM.
Take `c1ccc(-c2cccc(-c3cc(N4CCOCC4)n4nc(-c5ccncc5)cc4n3)n2)cc1`: 0.23 µM corresponded to half-maximal inhibition (IC50).
`c1ccc(-c2ccnc(-c3cc(N4CCOCC4)nc(OCc4ccncc4)n3)n2)cc1` yielded an IC50 of 1.45 µM.
Regarding `Cc1cccc(/C=N/Nc2nc(N3CCOCC3)c3ncccc3n2)c1`, the midpoint of inhibition, the IC50, lay at 8.21 µM.
`Fc1cccc(-c2ccnn2-c2nc(N3CCOCC3)c3ncccc3n2)c1` gave an IC50 of 5.75 µM.
For the molecule `Cc1cccc(/C=N/Nc2cc(N3CCOCC3)nc(OCCc3ccc(CN)cc3)n2)c1`, the IC50 worked out at 1.12 µM.
In turn, `c1ccc(N2CCc3c(OCc4cccnc4)nc(N4CCOCC4)nc32)cc1` returned an IC50 of 2.69 µM.

Another assay has as its system FAB1 TDP-43 yeast strain. The assay can be described thus: Propidium iodide viability assay in FAB1 TDP-43 control yeast strain. It counts as cell-based. Particulars: across a range of compound concentrations (FIG. 5, 0.23 μM shown). The procedure: Generation of TDP-43 yeast model expressing human PIKfyve. Human PIKFYVE (“entry clone”) was cloned into pAG416GPDccdB (“destination vector”) according to standard Gateway cloning protocols (Invitrogen, Life Technologies). The resulting pAG416GPD-PIKFYVE plasmids were amplified in E. coli and plasmid identity confirmed by restriction digest and Sanger sequencing. […]
Transformed yeast were plated on solid agar plates with complete synthetic media lacking uracil (CSM-ura) and containing 2% glucose. […] Multiple independent isolates were further evaluated for cytotoxicity and TDP-43 expression levels.
Viability Assay. A control yeast strain with the wild-type yeast FAB1 gene and TDP-43 (“FAB1 TDP-43”, carries empty pAG416 plasmid), and the “PIKFYVE TDP-43” yeast strain, were assessed for toxicity using a propidium iodide viability assay. […] Wells containing DMSO alone were also evaluated as controls for compound effects. […]
Upon the completion of incubation, cultures were assayed for viability using propidium iodide (PI) to stain for dead/dying cells. […] A benchtop flow cytometer (Miltenyi MACSquant) was then used to assess red fluorescence (B2 channel), forward scatter, and side scatter (with following settings: gentle mix, high flow rate, fast measurement, 10,000 events). […]
For the molecule `Cc1cccc(/C=N/Nc2cc(N3CCOCC3)n3nc(-c4ccncc4)cc3n2)c1` [APY0201, reference compound], the “viable cells in FAB1 TDP-43” value is recorded as “no increase in viable cells”.
